Measurements taken from PubChem BioAssay AID280 (DTP/NCI, 2004).
Values joined by “and” are separate entries in the source; they are usually repeats but may differ in a detail not shown here. Equal entries are not always repeated. Toxic doses and inconclusive results are not listed.

Tested on: nude mice, LOX melanoma ip, survival T/C
Test: NCI In Vivo Anticancer Drug Screen. Data for tumor model Human Amelanotic Melanoma (LOX) (intraperitoneal) in NU/NU BALB/C (nude) mice
Conditions: endpoint: median survival time, higher = longer survival
Protocol: The antitumor activity of compounds was measured in mice bearing transplantable tumors. Survival or tumor size were measured and the results are expressed as the measurement made in the treated group (T) divided by the measurement made in the vehicle treated control group (C). The tumor model used in this assay is Human Amelanotic Melanoma (LOX) (intraperitoneal) in NU/NU BALB/C (nude) mice

[1] = dose: 25.0 mg/kg/injection, schedule: Q04DX003 (ip), vehicle: saline with Tween-80
[2] = dose: 50.0 mg/kg/injection, schedule: Q04DX003 (ip), vehicle: saline with Tween-80
[3] = dose: 100.0 mg/kg/injection, schedule: Q04DX003 (ip), vehicle: saline with Tween-80
[4] = dose: 200.0 mg/kg/injection, schedule: Q04DX003 (ip), vehicle: saline with Tween-80
[5] = dose: 12.5 mg/kg/injection, schedule: Q04DX003 (ip), vehicle: suspension in saline
[6] = dose: 25.0 mg/kg/injection, schedule: Q04DX003 (ip), vehicle: suspension in saline
[7] = dose: 400.0 mg/kg/injection, schedule: Q04DX003 (ip), vehicle: saline with Tween-80
[8] = dose: 12.5 mg/kg/injection, schedule: Q04DX003 (ip), vehicle: saline with Tween-80
[9] = dose: 800.0 mg/kg/injection, schedule: Q04DX003 (ip), vehicle: saline with Tween-80

CC1OC(O[C@H]2/C=C/C=C/C=C/C=C/C=C/C=C/C=C/[C@H](C)[C@@H](O)[C@@H](C)[C@H](C)OC(=O)C[C@H](O)C[C@H](O)CC[C@@H](O)[C@H](O)C[C@H](O)C[C@]3(O)C[C@H](O)[C@@H](C(=O)O)[C@H](C2)O3)C(O)C(N)C1O (stereo partly drawn)
T/C (dose: 12.5 mg/kg/injection, schedule: Q04DX003 (ip), vehicle: saline + Tween-80 + alcohol): 110 % of control | T/C (dose: 25.0 mg/kg/injection, schedule: Q04DX003 (ip), vehicle: saline + Tween-80 + alcohol): 107 % of control

Nc1ccn([C@@H](C=O)C[C@@H](C=O)CO)c(=O)n1
T/C (dose: 18.75 mg/kg/injection, schedule: Q04DX003 (ip), vehicle: saline): 105 % of control | T/C (dose: 37.5 mg/kg/injection, schedule: Q04DX003 (ip), vehicle: saline): 107 % of control | T/C (dose: 75.0 mg/kg/injection, schedule: Q04DX003 (ip), vehicle: saline): 103 % of control | T/C (dose: 150.0 mg/kg/injection, schedule: Q04DX003 (ip), vehicle: saline): 103 % of control | T/C (dose: 300.0 mg/kg/injection, schedule: Q04DX003 (ip), vehicle: saline): 102 % of control

COc1cc(C(CC(C)=O)c2cc3c(cc2OC(C)=O)OCO3)cc(OC)c1OC (stereo not drawn) (tested in a mixture with another compound)
T/C [1]: 104 % of control | T/C [2]: 106 % of control | T/C [3]: 115 % of control | T/C [4]: 120 % of control

Oc1ccc(/C=N/Nc2nnc(N/N=C/c3ccc(O)cc3O)c3ccccc23)c(O)c1
T/C [5]: 120 % of control | T/C [6]: 119 % of control

COc1cccc2c1[C@H]1CO[C@H]3C4C[C@H](C(=O)O)C([C@@H](C2)N13)N4C (stereo partly drawn)
T/C (dose: 0.62 mg/kg/injection, schedule: Q04DX003 (ip), vehicle: water): 121 % of control | T/C (dose: 1.25 mg/kg/injection, schedule: Q04DX003 (ip), vehicle: water): 121 % of control | T/C (dose: 5.0 mg/kg/injection, schedule: Q04DX003 (ip), vehicle: water): 196 % of control | T/C (dose: 10.0 mg/kg/injection, schedule: Q04DX003 (ip), vehicle: water): 152 % of control | T/C (dose: 20.0 mg/kg/injection, schedule: Q04DX003 (ip), vehicle: water): 177 % of control

Nc1ccc2ccc(N)cc2c1
T/C [1]: 102 % of control | T/C [2]: 101 % of control | T/C [3]: 102 % of control | T/C [4]: 91 % of control | T/C [7]: 101 % of control

COC12[C@@H]3N[C@@H]3CN1C1=C(C(=O)C(NCCSSCCNC3=C(C)C(=O)C4=C(C3=O)C(COC(N)=O)[C@]3(OC)C5N[C@@H]5CN43)=C(C)C1=O)[C@@H]2COC(N)=O (stereo partly drawn)
T/C (dose: 1.57 mg/kg/injection, schedule: Q04DX003 (ip), vehicle: DMSO): 121 % of control | T/C (dose: 12.5 mg/kg/injection, schedule: Q04DX003 (ip), vehicle: DMSO): 331 % of control

CCCCCCn1c(SC)nc(COC(=O)NC)c1COC(=O)NC
T/C (dose: 33.7 mg/kg/injection, schedule: Q04DX003 (ip), vehicle: saline): 118 % of control | T/C (dose: 40.1 mg/kg/injection, schedule: Q04DX003 (ip), vehicle: water): 97 % of control | T/C (dose: 60.1 mg/kg/injection, schedule: Q04DX003 (ip), vehicle: water): 87 % of control | T/C (dose: 67.5 mg/kg/injection, schedule: Q04DX003 (ip), vehicle: saline): 171 % of control | T/C (dose: 90.0 mg/kg/injection, schedule: Q04DX003 (ip), vehicle: water): 97 % of control | T/C (dose: 135.0 mg/kg/injection, schedule: Q04DX003 (ip), vehicle: saline): 208 % of control | T/C (dose: 135.0 mg/kg/injection, schedule: Q04DX003 (ip), vehicle: water): 86 % of control | T/C (dose: 202.4 mg/kg/injection, schedule: Q04DX003 (ip), vehicle: water): 99 % of control

O=C(O)CCCc1ccc(N(CCCl)CCCl)cc1
T/C (dose: 0.2 mg/kg/injection, schedule: Q04DX003 (ip), vehicle: Klucel (hydroxypropylcellulose) (HPC)): 90 % of control | T/C (dose: 0.3 mg/kg/injection, schedule: Q04DX003 (ip), vehicle: Klucel (hydroxypropylcellulose) (HPC)): 95 % of control | T/C (dose: 12.0 mg/kg/injection, schedule: Q01DX001 (ip), vehicle: Klucel (hydroxypropylcellulose) (HPC)): 117 % of control | T/C (dose: 12.0 mg/kg/injection, schedule: Q01DX005 (ip), vehicle: Klucel (hydroxypropylcellulose) (HPC)): 213 % of control | T/C (dose: 12.0 mg/kg/injection, schedule: Q01DX015 (ip), vehicle: Klucel (hydroxypropylcellulose) (HPC)): 173 % of control | T/C (dose: 12.0 mg/kg/injection, schedule: Q04DX003 (ip), vehicle: Klucel (hydroxypropylcellulose) (HPC)): 116 % of control | T/C (dose: 18.0 mg/kg/injection, schedule: Q01DX001 (ip), vehicle: Klucel (hydroxypropylcellulose) (HPC)): 161 % of control | T/C (dose: 18.0 mg/kg/injection, schedule: Q01DX005 (ip), vehicle: Klucel (hydroxypropylcellulose) (HPC)): 190 % of control | T/C (dose: 18.0 mg/kg/injection, schedule: Q01DX015 (ip), vehicle: Klucel (hydroxypropylcellulose) (HPC)): 346 % of control | T/C (dose: 27.0 mg/kg/injection, schedule: Q01DX005 (ip), vehicle: Klucel (hydroxypropylcellulose) (HPC)): 346 % of control | T/C (dose: 27.0 mg/kg/injection, schedule: Q01DX015 (ip), vehicle: Klucel (hydroxypropylcellulose) (HPC)): 346 % of control | T/C (dose: 27.0 mg/kg/injection, schedule: Q04DX003 (ip), vehicle: Klucel (hydroxypropylcellulose) (HPC)): 210 % of control and 248 % of control and 97 % of control

Nc1nc(Br)nc2c1ncn2C1CC(O)C(CO)O1 (stereo not drawn)
T/C [8]: 99 % of control | T/C [1]: 106 % of control | T/C [2]: 104 % of control | T/C [3]: 104 % of control | T/C [4]: 93 % of control

O=C1C=CC(=CC=C2C=CN(CCCCCCCCCCCO)C=C2)C=C1
T/C (dose: 6.25 mg/kg/injection, schedule: Q04DX003 (ip), vehicle: saline with Tween-80): 107 % of control | T/C [8]: 100 % of control | T/C (dose: 36.0 mg/kg/injection, schedule: Q04DX003 (ip), vehicle: saline with Tween-80): 109 % of control and 110 % of control | T/C [2]: 117 % of control | T/C (dose: 60.0 mg/kg/injection, schedule: Q04DX003 (ip), vehicle: saline with Tween-80): 116 % of control and 120 % of control | T/C [4]: 159 % of control

NC(Cc1ccccc1)C(=O)OCN1C(=O)C2C3C=CC(C2C1=O)C1C2C(=O)N(COC(=O)C(N)Cc4ccccc4)C(=O)C2C31 (stereo not drawn)
T/C (dose: 25.0 mg/kg/injection, schedule: Q04DX003 (ip), vehicle: water): 105 % of control | T/C (dose: 50.0 mg/kg/injection, schedule: Q04DX003 (ip), vehicle: water): 109 % of control | T/C (dose: 100.0 mg/kg/injection, schedule: Q04DX003 (ip), vehicle: water): 107 % of control | T/C (dose: 200.0 mg/kg/injection, schedule: Q04DX003 (ip), vehicle: water): 116 % of control

Cc1ccc2c(c1)n([O-])c1cc(Cl)ccc1[n+]2=O
T/C [2]: 111 % of control | T/C [3]: 123 % of control | T/C (dose: 172.0 mg/kg/injection, schedule: Q04DX003 (ip), vehicle: saline with Tween-80): 116 % of control | T/C (dose: 288.0 mg/kg/injection, schedule: Q04DX003 (ip), vehicle: saline with Tween-80): 108 % of control | T/C [7]: 111 % of control | T/C (dose: 480.0 mg/kg/injection, schedule: Q04DX003 (ip), vehicle: saline with Tween-80): 113 % of control | T/C [9]: 107 % of control | T/C (dose: 1333.0 mg/kg/injection, schedule: Q04DX003 (ip), vehicle: saline with Tween-80): 110 % of control

CNC(=O)N(C)N=NCCCl
T/C [3]: 201 % of control | T/C [4]: 309 % of control | T/C [7]: 309 % of control | T/C [9]: 309 % of control

CC/C(=C(\c1ccccc1)c1ccc(OCCN(C)C)cc1)c1ccccc1
T/C (dose: 75.0 mg/kg/injection, schedule: Q04DX003 (ip), vehicle: suspension in saline): 109 % of control | T/C (dose: 150.0 mg/kg/injection, schedule: Q04DX003 (ip), vehicle: suspension in saline): 101 % of control | T/C (dose: 300.0 mg/kg/injection, schedule: Q04DX003 (ip), vehicle: suspension in saline): 96 % of control | T/C (dose: 600.0 mg/kg/injection, schedule: Q04DX003 (ip), vehicle: suspension in saline): 95 % of control

CC(=O)Nc1ccc(Nc2ccc(C(=C3C=CC(=[N+](C)CCC#N)C=C3)c3ccc(N(C)CCC#N)cc3)cc2)cc1
T/C (dose: 6.25 mg/kg/injection, schedule: Q04DX003 (ip), vehicle: suspension in saline): 101 % of control | T/C [5]: 111 % of control | T/C [6]: 116 % of control | T/C (dose: 30.0 mg/kg/injection, schedule: Q04DX003 (ip), vehicle: suspension in saline): 120 % of control | T/C (dose: 50.0 mg/kg/injection, schedule: Q04DX003 (ip), vehicle: suspension in saline): 111 % of control and 121 % of control | T/C (dose: 83.0 mg/kg/injection, schedule: Q04DX003 (ip), vehicle: suspension in saline): 110 % of control | T/C (dose: 100.0 mg/kg/injection, schedule: Q04DX003 (ip), vehicle: suspension in saline): 124 % of control
